This is an account of results in article PMC4033661 (Journal of medicinal chemistry, 2014).

By kinetic solubility is commonly meant solubility judged after dilution from a stock solution rather than from solid.

≈ marks a conversion by molar mass, not a printed value. Entries after “also recorded” stand apart in the source; their conditions may differ.

One data set concerns HT22 cells. Description: HT22 cell culture assay, glutamate-induced cell death. It is filed as cell-based, mouse.
Data set [1] is described as follows: Aqueous kinetic solubility in PBS buffer. It is filed as physicochemical. The conditions noted are these: pH 7.4.
Data set [2] can be described thus: Microsomal stability, rat. It counts as in vitro ADME. The conditions noted are these: rat liver microsomes, in the presence of NADPH. In general terms: Liver microsomes are a subcellular fraction often used to study metabolism.
The nature of data set [3]: Microsomal stability, mouse. The conditions noted are these: mouse liver microsomes, in the presence of NADPH. It is filed as in vitro ADME.
The nature of data set [4]: Stability in aqueous solutions. It is filed as physicochemical. The conditions noted are these: pH 2, pH 7.4, pH 9.
In data set [5] the target is T1, human platelet 12-lipoxygenase (12-LOX) (Homo sapiens, UniProt P18054).
T1 sequence (P18054 1-663): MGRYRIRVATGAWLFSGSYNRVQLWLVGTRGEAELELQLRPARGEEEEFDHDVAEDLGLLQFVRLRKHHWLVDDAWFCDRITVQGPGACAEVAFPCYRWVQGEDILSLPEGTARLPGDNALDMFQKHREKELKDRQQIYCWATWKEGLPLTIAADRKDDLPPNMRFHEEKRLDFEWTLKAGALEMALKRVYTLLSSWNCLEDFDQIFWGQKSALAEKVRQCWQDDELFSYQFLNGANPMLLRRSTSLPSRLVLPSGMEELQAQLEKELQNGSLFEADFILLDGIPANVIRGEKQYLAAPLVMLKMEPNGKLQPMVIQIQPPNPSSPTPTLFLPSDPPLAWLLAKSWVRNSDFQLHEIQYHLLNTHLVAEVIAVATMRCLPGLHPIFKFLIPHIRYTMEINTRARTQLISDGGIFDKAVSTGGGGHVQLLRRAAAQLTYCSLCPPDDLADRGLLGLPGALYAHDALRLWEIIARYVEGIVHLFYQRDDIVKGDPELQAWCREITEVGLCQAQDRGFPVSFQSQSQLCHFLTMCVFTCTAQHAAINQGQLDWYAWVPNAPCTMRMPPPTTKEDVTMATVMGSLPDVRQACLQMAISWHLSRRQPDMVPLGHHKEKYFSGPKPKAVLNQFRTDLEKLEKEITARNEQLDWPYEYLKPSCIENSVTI
Briefly: Lipoxygenase UV-Vis assay, 12-LOX selectivity.

Another data set has as its system human 12/15-LOX. The conditions noted are these: read-out: 12/15-LOX IC50; cited from earlier work.

Turning to `CNc1oc(-c2cccc3ccccc23)nc1C#N` [Compound 1, 5-(Methylamino)-2-(naphthalen-1-yl)oxazole-4-carbonitrile], in the data set with HT22 cells (HT22 cells, 5 mM glutamate, increasing amounts of compound), the “protection against oxidative glutamate toxicity” value is reported as “protective; also recorded: dose-dependent protection”. This compound also yielded a kinetic solubility in data set [1] of 1.2 µM (≈ 0.299 µg/mL). The “Microsomal Stability T1/2” value in data set [2] is on record as 18 (rat) min; in data set [3], 5.5 (mouse) min. The “stability in aqueous solutions” value in data set [4] is listed as “stable”. Compound `CNc1sc(-c2cccc3ccccc23)nc1C#N` [Compound 32, 5-(methylamino)-2-(naphthalen-1-yl)thiazole-4-carbonitrile] returned an IC50 in data set [5] of over 50 µM. In the case of `CNc1nc(C#N)c(-c2cccc3ccccc23)o1` [Compound 34], the “cellular protection in HT22 cells” value with HT22 cells (5 μM concentration, glutamate-treated) is “did not protect; also recorded: does not protect”.

`O=c1cc(-c2ccccc2)oc2cc(O)c(O)c(O)c12` [baicalein]: the IC50 in the data set with human 12/15-LOX was 1.6 µM. Take `C[C@H]1[C@H](C)CC[C@]2(C)CC[C@]3(C)C(=CC[C@@H]4[C@@]5(C)CC[C@@H](O)[C@](C)(C(=O)O)[C@@H]5CC[C@]43C)[C@H]12` [boswellic acid]: the IC50 in the data set on human 12/15-LOX was 1 µM.
